Reference: patent publication US8044056B2, “Adenine compound” (priority 2007, dated 2011)

Each compound was assayed against T1, Human TLR7 (Homo sapiens, UniProt Q9NYK1) (assay: Human TLR7 reporter assay (NF-kB-SEAP)). Conditions: HEK293 cells stably carrying human TLR7 plasmid and NF-kB-SEAP reporter; 20 hours incubation; 1 nM-10 μM; absorbance 405 nm; read-out: Human TLR7 binding activity (pEC50) (converted).
T1 construct: expressed in transfected cells; host or cells: HEK293 (hTLR7/seap-293)
T1 sequence (Q9NYK1 27-1049): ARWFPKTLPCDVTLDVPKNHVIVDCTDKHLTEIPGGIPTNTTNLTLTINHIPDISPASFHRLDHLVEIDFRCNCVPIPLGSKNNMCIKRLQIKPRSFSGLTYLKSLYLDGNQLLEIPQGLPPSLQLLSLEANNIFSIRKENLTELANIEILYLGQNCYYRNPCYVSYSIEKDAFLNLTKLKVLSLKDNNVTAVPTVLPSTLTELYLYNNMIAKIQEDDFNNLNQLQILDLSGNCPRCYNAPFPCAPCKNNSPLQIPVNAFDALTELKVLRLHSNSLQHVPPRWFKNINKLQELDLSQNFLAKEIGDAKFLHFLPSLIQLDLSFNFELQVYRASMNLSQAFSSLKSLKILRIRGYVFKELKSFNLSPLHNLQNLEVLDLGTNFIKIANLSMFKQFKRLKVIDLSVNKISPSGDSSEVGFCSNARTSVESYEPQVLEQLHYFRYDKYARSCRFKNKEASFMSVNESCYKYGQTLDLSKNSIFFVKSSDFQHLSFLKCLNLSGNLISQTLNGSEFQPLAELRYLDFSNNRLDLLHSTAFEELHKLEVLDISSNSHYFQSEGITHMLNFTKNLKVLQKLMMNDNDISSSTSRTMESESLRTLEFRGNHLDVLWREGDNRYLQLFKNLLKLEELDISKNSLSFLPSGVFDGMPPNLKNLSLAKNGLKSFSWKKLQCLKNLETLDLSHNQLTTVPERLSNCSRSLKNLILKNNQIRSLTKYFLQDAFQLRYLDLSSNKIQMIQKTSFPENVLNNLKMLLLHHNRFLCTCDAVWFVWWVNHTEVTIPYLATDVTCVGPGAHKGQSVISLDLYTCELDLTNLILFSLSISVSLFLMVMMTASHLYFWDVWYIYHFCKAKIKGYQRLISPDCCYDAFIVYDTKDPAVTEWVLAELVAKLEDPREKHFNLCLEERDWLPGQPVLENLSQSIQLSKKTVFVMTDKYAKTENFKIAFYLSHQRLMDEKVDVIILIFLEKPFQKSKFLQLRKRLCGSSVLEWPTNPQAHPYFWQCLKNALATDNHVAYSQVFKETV
Type: cell-based
Protocol: Human TLR7 or rat TLR7 plasmid and a reporter plasmid (NF-kB-SEAP) stably-induced HEK293 cells were suspended in DMEM media (10% FBS, 1% NEAA, 10 μg/mL blastocidin S HCl, 100 ug/mL Zeocin), and the suspension was seeded on a 96-well plate in an amount of 90 μl/well (hTLR7/seap-293: 20000 cells/well, rTLR7/seap-293: 25000 cells/well).
To the cells seeded on the 96-well plate was added a test compound wherein DMSO stock solution (2 μl) was hundredfold diluted with medium (200 μl) in an amount of 10 μl/well (final concentration; 1 nM-10 μM, common ratio 3). The mixture was stirred by tapping in the side of the plate, and then incubated for 20 hours in a CO2 incubator. To the cells stimulated by a test compound was added a substrate for reporter assay (substrate for SEAP, pNPP) in an amount of 50 μl/well. Ten minutes after the addition of the substrate, a quenching solution (4N NaOH) was added in an amount of 50 μl/well, and the enzymatic reaction was quenched. Top seal A was attached on the plate, and the absorbance was measured by microplate reader (405 nm).

SMILES	EC50 [nM]
CCCCOc1nc(N)c2[nH]c(=O)n(CCCN3CCN(C/C=C/c4ccccc4)CC3)c2n1 [Example 4, 2-Butoxy-9-(3-[4-cinnamylpiperazin-1-yl]propyl)-7,8-dihydro-8-oxoadenine]	794
CCCCOc1nc(N)c2[nH]c(=O)n(CCCCCCCN3CCN(c4ccc(C(C)=O)cc4)CC3)c2n1 [Example 5, 9-(7-[4-(4-Acetylphenyl)piperazin-1-yl]heptyl-2-butoxy-7,8-dihydro)-8-oxoadenine]	158
CCCCOc1nc(N)c2[nH]c(=O)n(CCCCCCCN3CCN(c4ccncc4)CC3)c2n1 [Example 6, 2-Butoxy-7,8-dihydro-9-(7-[4-(4-pyridyl)piperazin-1-yl]heptyl)-8-oxoadenine]	31.6
CCCCOc1nc(N)c2[nH]c(=O)n(CCCCCCCN3CCC(Oc4ccc(Cl)cc4C)CC3)c2n1 [Example 7, 2-Butoxy-9-(7-[4-(4-chloro-2-methylphenoxy)piperidin-1-yl]heptyl)-7,8-dihydro-8-oxoadenine]	631
CCCCOc1nc(N)c2[nH]c(=O)n(CCCCCCCN3CCN(c4ccc(OC)cc4)CC3)c2n1 [Example 8, 2-Butoxy-7,8-dihydro-9-(7-[4-(4-methoxyphenyl)piperazin-1-yl]heptyl)-8-oxoadenine]	251
